Results on 18 compounds are retold here after US10287298B2, “Nitrogen-containing analogs of salinomycin, synthesis and use against cancer stem cells and malaria” (Centre National de la Recherche Scientifique (CNRS), priority 2014, dated 2019).

By IC50 is commonly meant the concentration that gives 50% inhibition.

Read-outs that look alike come from different tables or passages of the source.

Assay [1] has as its system HMLER CD24+ cells. Description: Cell viability assay (CellTiter-Blue), IC50 assessment. Format: cell-based. Conditions: Homo sapiens, read-out: IC50 CD24+. Here is the method:
(§1) FIG. 1 represents viability of HMLER CD24− cells (full line) and HMLER CD24+ cells (dotted line) at different concentration of salinomycine (1A), AM5 […] or AM13 (1D).
(§2) Cell viability assay was carried out by plating 1000 cells per well in 96-well plates. NAC (2 mM, A9165 Sigma) or DFO (1 mM) were pretreated 2 hours prior to the compound treatment. CellTiter-Blue® Reagent (Promega; G3582) (20 μl/well) was added after 24, 48, or 72 hours treatment and cells were incubated for 1 hour before recording fluorescence (560(20)Ex/590(10)Em) using a Perkin Elmer Wallac 1420 Victor2 Microplate Reader.
For orientation: Alamar Blue is a resazurin reagent that responds to reducing activity.

The subject of assay [2] is HMLER CD24− cells. The description is as above. Format: cell-based, Human. The conditions noted are these: for IC50: Homo sapiens, read-out: IC50 CD24−; for activity against CD24 cells compared with salinomycine: comparison of the IC50 results. As to the method: as §1, §2
Assay [3] concerns HMLER CD24− cells. Nature of the assay: Cell proliferation and formation of mammospheres. Format: cell-based, Human. An excerpt:
FIG. 2 is a representative phase contrast photomicrographs of mammospheres formed after 11 days in the absence of any added compound (Control) or in the presence of a defined amount of salinomycine, AM5, AM9 or AM13. […] The size of the mammospheres is correlated with progenitor cell proliferation, whereas the number of mammospheres formed after serial passages at clonal density is correlated with the self-renewal capacity of primitive Cancer Stem Cells. […]
FIG. 9 represents images of the third generation of mammospheres formed from individual HMLER CD24low cells treated during 7 days with the indicated drug. The size of the mammospheres is correlated with progenitor cell proliferation capacity, whereas the number of mammospheres formed after serial passages at clonal density is correlated with the self-renewal capacity of primitive Cancer Stem Cells.
AM5, AM9, AM13 and salinomycine were assessed for their capability to inhibit cell proliferation and formation of mammospheres. […]
AM5 and AM23 and salinomycine were assessed for their capability to inhibit cell proliferation and formation of mammospheres.

Where [4] appears, read: HMLER CD24+ cells, cell viability.
Setting [5] is: HMLER CD24− cells, cell viability.

Regarding `CCC(C(=O)O)[C@H]1CC[C@H](C)C([C@@H](C)[C@H](O)[C@H](C)C(=O)[C@H](CC)[C@H]2O[C@]3(C=CC(=O)[C@]4(CC[C@@](C)([C@H]5CC[C@](O)(CC)[C@H](C)O5)O4)O3)[C@H](C)C[C@@H]2C)O1` (stereo partly drawn) [AM6], the values for the IC50 in assay [1] and in assay [2] were 12800 nM and 6180 nM, respectively.
As to `CCC(C(=O)OC)[C@H]1CC[C@H](C)C([C@@H](C)[C@H](O)[C@H](C)C(=O)[C@H](CC)[C@H]2O[C@]3(C=C[C@@H](OC(C)=O)[C@]4(CC[C@@](C)([C@H]5CC[C@](O)(CC)[C@H](C)O5)O4)O3)[C@H](C)C[C@@H]2C)O1` (stereo partly drawn) [AM7], the IC50 was 12500 nM in assay [1] (setting [4]) and 7250 nM in assay [2] (setting [5]).
As for `CCC(C(=O)O)[C@H]1CC[C@H](C)C([C@@H](C)[C@H](O)[C@H](C)C(=O)[C@H](CC)[C@H]2O[C@]3(C=C[C@@H](NOCc4ccccc4)[C@]4(CC[C@@](C)([C@H]5CC[C@](O)(CC)[C@H](C)O5)O4)O3)[C@H](C)C[C@@H]2C)O1` (stereo partly drawn) [AM8], the values for the IC50 in assay [1] (setting [4]) and in assay [2] (setting [5]) were 8060 nM and 1020 nM, respectively. In addition, the “activity against CD24 cells compared with salinomycine” value (shortened to “activity … compared with salinomycine”) in assay [2] is “significantly improved activity”.
With `C#CCN[C@@H]1C=C[C@]2(O[C@H]([C@@H](CC)C(=O)[C@@H](C)[C@@H](O)[C@H](C)C3O[C@@H](C(CC)C(=O)OC)CC[C@@H]3C)[C@@H](C)C[C@H]2C)O[C@@]12CC[C@@](C)([C@H]1CC[C@](O)(CC)[C@H](C)O1)O2` (stereo partly drawn) [AM9, Me-Sal-propargylamine], the 50% inhibitory concentration (IC50) worked out at 22000 nM in assay [1] (setting [4]) and 11800 nM in assay [2] (setting [5]). In addition, in assay [3], the “effect against tumorsphere formation / CSC maintenance” value was “ineffective”. The “inhibition of cell proliferation” value in assay [3] (at 500 nM) is on record as “did not inhibit cell proliferation”. Besides, in assay [2], the “activity … compared with salinomycine” value is “lower efficiency than salinomycine”.
As for `C#CCN[C@@H]1C=C[C@]2(O[C@H]([C@@H](CC)C(=O)[C@@H](C)[C@@H](O)[C@H](C)C3O[C@@H](C(CC)C(=O)OCC#C)CC[C@@H]3C)[C@@H](C)C[C@H]2C)O[C@@]12CC[C@@](C)([C@H]1CC[C@](O)(CC)[C@H](C)O1)O2` (stereo partly drawn) [AM10], the IC50 turned out to be 19700 nM in assay [1] (setting [4]) and 10000 nM in assay [2] (setting [5]). For the same compound, the “activity … compared with salinomycine” value in assay [2] was “lower efficiency than salinomycine”.
On the same counts, the results for `CCC(C(=O)O)[C@H]1CC[C@H](C)C([C@@H](C)[C@H](O)[C@H](C)C(=O)[C@H](CC)[C@H]2O[C@]3(C=C[C@@H](NCc4ccccc4)[C@]4(CC[C@@](C)([C@H]5CC[C@](O)(CC)[C@H](C)O5)O4)O3)[C@H](C)C[C@@H]2C)O1` (stereo partly drawn) [AM11] are 6700 nM, 800 nM and “significantly improved activity”.
Take `CCCCCCN[C@@H]1C=C[C@]2(O[C@H]([C@@H](CC)C(=O)[C@@H](C)[C@@H](O)[C@H](C)C3O[C@@H](C(CC)C(=O)O)CC[C@@H]3C)[C@@H](C)C[C@H]2C)O[C@@]12CC[C@@](C)([C@H]1CC[C@](O)(CC)[C@H](C)O1)O2` (stereo partly drawn) [AM12]: the IC50 in assay [1] (setting [4]) was found to be 6920 nM; in assay [2] (setting [5]), 1790 nM. Moreover, in assay [2], the “activity … compared with salinomycine” value is reported as “significantly improved activity”.
Turning to `CCCCCCCCCCCCN[C@@H]1C=C[C@]2(O[C@H]([C@@H](CC)C(=O)[C@@H](C)[C@@H](O)[C@H](C)C3O[C@@H](C(CC)C(=O)O)CC[C@@H]3C)[C@@H](C)C[C@H]2C)O[C@@]12CC[C@@](C)([C@H]1CC[C@](O)(CC)[C@H](C)O1)O2` (stereo partly drawn) [AM13, Sal-Dodecylamine], the values for the IC50 in assay [1] (setting [4]) and in assay [2] (setting [5]) were 3190 nM and 72.7 nM, respectively. For the same compound, the “inhibition of cell proliferation, efficacy in comparison with salinomycine” value in assay [3] (at 30 nM) is “ten-fold improved efficacy”. For the same compound, the “number and size of mammosphere” value in assay [3] (mammospheres after 11 days, low nanomolar concentrations) is “reduced the number and the size of mammosphere”. The “activity … compared with salinomycine” value in assay [2] is on record as “significantly improved activity”.
On to `C#CCCCN[C@@H]1C=C[C@]2(O[C@H]([C@@H](CC)C(=O)[C@@H](C)[C@@H](O)[C@H](C)C3O[C@@H](C(CC)C(=O)O)CC[C@@H]3C)[C@@H](C)C[C@H]2C)O[C@@]12CC[C@@](C)([C@H]1CC[C@](O)(CC)[C@H](C)O1)O2` (stereo partly drawn) [AM16], for which the IC50 in assay [1] (setting [4]) amounted to 1170 nM; in assay [2] (setting [5]), 300 nM.
With `C#CCN[C@H]1C=C[C@]2(O[C@H]([C@@H](CC)C(=O)[C@@H](C)[C@@H](O)[C@H](C)C3O[C@@H](C(CC)C(=O)O)CC[C@@H]3C)[C@@H](C)C[C@H]2C)O[C@@]12CC[C@@](C)([C@H]1CC[C@](O)(CC)[C@H](C)O1)O2` (stereo partly drawn) [AM17], the figures for the IC50 in assay [1] (setting [4]) and in assay [2] (setting [5]) were 2000 nM and 100 nM, respectively.
On the same counts, the results for `CCC(C(=O)NO)[C@H]1CC[C@H](C)C([C@@H](C)[C@H](O)[C@H](C)C(=O)[C@H](CC)[C@H]2O[C@]3(C=C/C(=N\O)[C@]4(CC[C@@](C)([C@H]5CC[C@](O)(CC)[C@H](C)O5)O4)O3)[C@H](C)C[C@@H]2C)O1` (stereo partly drawn) [AM18] are 2500 nM and 100 nM.
As for `CCCN[C@@H]1C=C[C@]2(O[C@H]([C@@H](CC)C(=O)[C@@H](C)[C@@H](O)[C@H](C)C3O[C@@H](C(CC)C(=O)O)CC[C@@H]3C)[C@@H](C)C[C@H]2C)O[C@@]12CC[C@@](C)([C@H]1CC[C@](O)(CC)[C@H](C)O1)O2` (stereo partly drawn) [AM21], the IC50 turned out to be 6500 nM in assay [1] (setting [4]) and 340 nM in assay [2] (setting [5]).
With `C=CCN[C@@H]1C=C[C@]2(O[C@H]([C@@H](CC)C(=O)[C@@H](C)[C@@H](O)[C@H](C)C3O[C@@H](C(CC)C(=O)O)CC[C@@H]3C)[C@@H](C)C[C@H]2C)O[C@@]12CC[C@@](C)([C@H]1CC[C@](O)(CC)[C@H](C)O1)O2` (stereo partly drawn) [AM22], the IC50 in assay [1] (setting [4]) was 1530 nM; in assay [2] (setting [5]), 300 nM.
For `CCC(C(=O)O)[C@H]1CC[C@H](C)C([C@@H](C)[C@H](O)[C@H](C)C(=O)[C@H](CC)[C@H]2O[C@]3(C=C[C@@H](NC4CCC4)[C@]4(CC[C@@](C)([C@H]5CC[C@](O)(CC)[C@H](C)O5)O4)O3)[C@H](C)C[C@@H]2C)O1` (stereo partly drawn) [AM24], in that order: 1400 nM and 107 nM.
For `CCC(C(=O)O)[C@H]1CC[C@H](C)C([C@@H](C)[C@H](O)[C@H](C)C(=O)[C@H](CC)[C@H]2O[C@]3(C=C[C@@H](NC4CCCC4)[C@]4(CC[C@@](C)([C@H]5CC[C@](O)(CC)[C@H](C)O5)O4)O3)[C@H](C)C[C@@H]2C)O1` (stereo partly drawn) [AM25], in that order: 1360 nM and 108 nM.
For `CCC(C(=O)O)[C@H]1CC[C@H](C)C([C@@H](C)[C@H](O)[C@H](C)C(=O)[C@H](CC)[C@H]2O[C@]3(CC[C@@H](NCC(C)C)[C@]4(CC[C@@](C)([C@H]5CC[C@](O)(CC)[C@H](C)O5)O4)O3)[C@H](C)C[C@@H]2C)O1` (stereo partly drawn) [AM26], in that order: 10100 nM and 1150 nM.
Take `CCC(C(=O)NO)[C@H]1CC[C@H](C)C([C@@H](C)[C@H](O)[C@H](C)C(=O)[C@H](CC)[C@H]2O[C@]3(C=C[C@@H](NC4CC4)[C@]4(CC[C@@](C)([C@H]5CC[C@](O)(CC)[C@H](C)O5)O4)O3)[C@H](C)C[C@@H]2C)O1` (stereo partly drawn) [AM28]: the IC50 in assay [1] (setting [4]) was found to be 5830 nM; in assay [2] (setting [5]), 6430 nM.
Take `CC(=O)O[C@H]1C(=O)[C@@]2(C)[C@H]([C@H](OC(=O)c3ccccc3)[C@]3(O)C[C@H](OC(=O)[C@H](O)[C@@H](NC(=O)c4ccccc4)c4ccccc4)C(C)=C1C3(C)C)[C@]1(OC(C)=O)CO[C@@H]1C[C@@H]2O` [paclitaxel, reference compound]: in assay [3], the “effect against tumorsphere formation / CSC maintenance” value is “poorly effective”.
